Measurements reported in the NIST ThermoML archive (doi:10.1021/je050509f).

Experiment: mn = molality of the nth substance listed, in mol/kg
Details: Liquid, Vibrating tube method

[Cl-].[Cl-].[Zn+2] [zinc chloride] + CO
Details	mass density [kg/m3]
298.27 K, 170 kPa, m1 = 0.8018	861.37
298.27 K, 188 kPa, m1 = 0.4768	833.84
298.27 K, 200 kPa, m1 = 5.367	1205.67
298.27 K, 203 kPa, m1 = 1.039	881.26
298.27 K, 205 kPa, m1 = 0.1348	801.32
298.27 K, 205 kPa, m1 = 1.977	959.59
298.27 K, 4983 kPa, m1 = 5.367	1209.53
298.27 K, 4985 kPa, m1 = 1.039	885.56
298.27 K, 4994 kPa, m1 = 0.4768	838
298.27 K, 4996 kPa, m1 = 0.8018	865.98
298.27 K, 5004 kPa, m1 = 0.1348	805.97
298.27 K, 5014 kPa, m1 = 1.977	963.97
298.27 K, 9992 kPa, m1 = 5.367	1213.48
298.27 K, 9995 kPa, m1 = 0.8018	870.53
298.27 K, 9996 kPa, m1 = 1.977	968.35
298.27 K, 9997 kPa, m1 = 1.039	889.93
298.27 K, 10000 kPa, m1 = 0.1348	810.57
298.27 K, 10004 kPa, m1 = 0.4768	841.99
298.27 K, 14982 kPa, m1 = 0.4768	845.9
298.27 K, 14987 kPa, m1 = 1.039	894.12
298.27 K, 14995 kPa, m1 = 5.367	1217.3
298.27 K, 14997 kPa, m1 = 1.977	972.58
298.27 K, 15000 kPa, m1 = 0.8018	874.88
298.27 K, 15010 kPa, m1 = 0.1348	814.96
298.27 K, 19985 kPa, m1 = 1.039	898.15
298.27 K, 19988 kPa, m1 = 5.367	1221.03
298.27 K, 19989 kPa, m1 = 1.977	976.63
298.27 K, 20001 kPa, m1 = 0.8018	879.03
298.27 K, 20007 kPa, m1 = 0.1348	819.13
298.27 K, 20018 kPa, m1 = 0.4768	849.66
298.27 K, 24988 kPa, m1 = 0.8018	883.01
298.27 K, 24993 kPa, m1 = 1.977	980.56
298.27 K, 24996 kPa, m1 = 5.367	1224.68
298.27 K, 24999 kPa, m1 = 0.1348	823.11
298.27 K, 25003 kPa, m1 = 1.039	902.02
298.27 K, 25032 kPa, m1 = 0.4768	853.57
298.27 K, 29990 kPa, m1 = 1.977	984.35
298.27 K, 29994 kPa, m1 = 5.367	1228.21
298.27 K, 30002 kPa, m1 = 0.1348	826.95
298.27 K, 30004 kPa, m1 = 0.4768	857.56
298.27 K, 30004 kPa, m1 = 0.8018	886.87
298.27 K, 30007 kPa, m1 = 1.039	905.8
298.27 K, 34983 kPa, m1 = 1.039	909.4
298.27 K, 34992 kPa, m1 = 0.8018	890.56
298.27 K, 34993 kPa, m1 = 0.1348	830.61
298.27 K, 34993 kPa, m1 = 0.4768	862.15
298.27 K, 34996 kPa, m1 = 5.367	1231.68
298.27 K, 35014 kPa, m1 = 1.977	988.04
298.27 K, 39991 kPa, m1 = 1.039	912.9
298.27 K, 39994 kPa, m1 = 1.977	991.58
298.27 K, 39994 kPa, m1 = 5.367	1235.1
298.27 K, 39997 kPa, m1 = 0.4768	866.01
298.27 K, 39997 kPa, m1 = 0.8018	894.15
298.27 K, 40006 kPa, m1 = 0.1348	834.16
323.24 K, 207 kPa, m1 = 0.4768	808.23
323.24 K, 209 kPa, m1 = 0.1348	777.17
323.24 K, 209 kPa, m1 = 5.367	1172.87
323.24 K, 220 kPa, m1 = 1.039	855.22
323.24 K, 230 kPa, m1 = 1.977	931.65
323.24 K, 233 kPa, m1 = 0.8018	835.94
323.24 K, 4983 kPa, m1 = 0.8018	841.09
323.24 K, 4985 kPa, m1 = 0.4768	813.47
323.24 K, 4990 kPa, m1 = 0.1348	782.51
323.24 K, 4993 kPa, m1 = 1.977	936.57
323.24 K, 4994 kPa, m1 = 1.039	860.28
323.24 K, 4999 kPa, m1 = 5.367	1177.21
323.24 K, 9985 kPa, m1 = 1.977	941.48
323.24 K, 9994 kPa, m1 = 0.4768	818.67
323.24 K, 9997 kPa, m1 = 5.367	1181.61
323.24 K, 10002 kPa, m1 = 0.8018	846.25
323.24 K, 10003 kPa, m1 = 0.1348	787.77
323.24 K, 10005 kPa, m1 = 1.039	865.32
323.24 K, 14982 kPa, m1 = 0.4768	823.55
323.24 K, 14998 kPa, m1 = 1.977	946.2
323.24 K, 14999 kPa, m1 = 0.1348	792.71
323.24 K, 14999 kPa, m1 = 1.039	870.09
323.24 K, 15002 kPa, m1 = 0.8018	851.11
323.24 K, 15002 kPa, m1 = 5.367	1185.89
323.24 K, 19995 kPa, m1 = 0.4768	828.21
323.24 K, 19998 kPa, m1 = 5.367	1190.03
323.24 K, 19999 kPa, m1 = 0.8018	855.74
323.24 K, 19999 kPa, m1 = 1.977	950.72
323.24 K, 20000 kPa, m1 = 0.1348	797.39
323.24 K, 20003 kPa, m1 = 1.039	874.64
323.24 K, 24989 kPa, m1 = 0.8018	860.16
323.24 K, 24989 kPa, m1 = 1.977	955.05
323.24 K, 24989 kPa, m1 = 5.367	1194.06
323.24 K, 24990 kPa, m1 = 1.039	878.98
323.24 K, 24994 kPa, m1 = 0.1348	801.85
323.24 K, 24999 kPa, m1 = 0.4768	832.65
323.24 K, 29987 kPa, m1 = 0.4768	836.86
323.24 K, 29989 kPa, m1 = 0.8018	864.4
323.24 K, 29990 kPa, m1 = 1.977	959.23
323.24 K, 29993 kPa, m1 = 0.1348	806.09
323.24 K, 30001 kPa, m1 = 5.367	1197.99
323.24 K, 30007 kPa, m1 = 1.039	883.18
323.24 K, 34987 kPa, m1 = 5.367	1201.8
323.24 K, 34989 kPa, m1 = 1.039	887.17
323.24 K, 34998 kPa, m1 = 0.8018	868.48
323.24 K, 35001 kPa, m1 = 1.977	963.27
323.24 K, 35003 kPa, m1 = 0.4768	840.94
323.24 K, 35007 kPa, m1 = 0.1348	810.14
323.24 K, 39991 kPa, m1 = 1.039	891.04
323.24 K, 39994 kPa, m1 = 0.4768	844.83
323.24 K, 39995 kPa, m1 = 0.8018	872.4
323.24 K, 39995 kPa, m1 = 5.367	1205.55
323.24 K, 39997 kPa, m1 = 0.1348	814
323.24 K, 39997 kPa, m1 = 1.977	967.17
348.27 K, 305 kPa, m1 = 1.977	904.26
348.27 K, 308 kPa, m1 = 0.1348	752.15
348.27 K, 320 kPa, m1 = 0.4768	782.8
348.27 K, 328 kPa, m1 = 0.8018	810.17
348.27 K, 330 kPa, m1 = 1.039	829.39
348.27 K, 335 kPa, m1 = 5.367	1141.63
348.27 K, 4982 kPa, m1 = 5.367	1146.29
348.27 K, 4983 kPa, m1 = 0.4768	788.73
348.27 K, 4984 kPa, m1 = 1.977	909.72
348.27 K, 4989 kPa, m1 = 0.1348	758.25
348.27 K, 4994 kPa, m1 = 1.039	835.08
348.27 K, 4999 kPa, m1 = 0.8018	816.01
348.27 K, 9985 kPa, m1 = 1.977	915.25
348.27 K, 9992 kPa, m1 = 0.8018	821.86
348.27 K, 9992 kPa, m1 = 5.367	1151.14
348.27 K, 9993 kPa, m1 = 0.1348	764.3
348.27 K, 9998 kPa, m1 = 0.4768	794.7
348.27 K, 10000 kPa, m1 = 1.039	840.82
348.27 K, 14985 kPa, m1 = 0.4768	800.24
348.27 K, 14985 kPa, m1 = 0.8018	827.35
348.27 K, 14987 kPa, m1 = 1.039	846.22
348.27 K, 14992 kPa, m1 = 1.977	920.51
348.27 K, 14999 kPa, m1 = 0.1348	769.95
348.27 K, 15020 kPa, m1 = 5.367	1155.81
348.27 K, 19986 kPa, m1 = 1.977	925.5
348.27 K, 19989 kPa, m1 = 0.4768	805.48
348.27 K, 19994 kPa, m1 = 0.8018	832.56
